From patent US11261220B2, “Salmonella siiE-derived peptides for manipulation of long-lived plasma cells” (DEUTSCHES RHEUMA-FORSCHU[…], priority 2017, dated 2022)

Tests used:
[1] = system: anti-DNA IgG-secreting plasma cells in the BM; assay: Murine model of systemic lupus erythematosus, anti-DNA IgG ELISpot in BM; format: in vivo; settings: NZB/VV Fl female mice 5-6 months old, i.p. 100 μg on days 0, 3, 7 and 10, ELISpot on day 11
Experimental: FIG. 15. SiiE129 peptide reduce numbers of DNA-specific IgG-secreting plasma cells in the bone marrow. […] NZB/VV Fl female mice (5-6 months old) received i.p. 100 μg peptide coding SiiE amino acid 129-168 on days 0, 3, 7 and 10 and on day 11 were analyzed for anti-DNA IgG-secreting cells in the BM by ELISpot assay. n=5-6. The data are representative of two independent experiments.
NZB/VV Fl female mice (5-6 months old) received i.p. 100 μg peptide coding SiiE amino acid 129-168 on days 0, 3, 7 and 10 and on day 11 were analyzed for anti-DNA IgG-secreting cells in the BM by ELISpot assay.

[2] = system: BM IgG-secreting plasma cells; assay: ELISpot count of Ig-secreting cells the day after i.p. SiiE peptide; format: in vivo; settings: C57BL/6 mice, i.p. 100 μg peptide, analyzed on the next day
Experimental: FIG. 5. Identification of the microbial component reducing numbers of BM IgG-secreting plasma cells. (A) Salmonella colonizes in the spleen and liver but not in the BM. The CFU of Salmonella in the spleen, liver and BM of Salmonella-infected mice on day 4 after infection was counted. The dotted line represents the limit of detection. n=3-6. […] C57BL/6 mice received 200 μl of LB medium, untreated or LPS-depleted culture supernatants from flagellin-deficient attenuated Salmonella or Escherichia coli (ΔLonΔFIhD) and on the next day (24 h later) were analyzed for IgG-secreting cells by ELISpot assay. n=8. […] Mice were infected i.p. with 200 μl of LB and LPS-depleted supernatant from flagellin-deficient attenuated Salmonella on day 41 and analyzed for IgG-secreting cells on the next day. n=6. […] C57BL/6 mice received i.p. 200 μl of LB medium and LPS-depleted supernatants from attenuated Salmonella ΔLon or ΔLonΔSiiE and on the next day were analyzed for IgG-secreting cells by ELISpot assay. n=5. […] C57BL/6 mice received i.p. 100 μg peptide coding SiiE amino acid 129-168 and on the next day were analyzed for IgG- and IgM-secreting cells in the BM and spleen. n=5. […] BM or splenic cells from C57BL/6 mice were incubated with 30 μg/ml of GST-SiiE 97-170 or GST protein, stained with anti-GST antibodies, and analyzed by flow cytometry. n=3. […] Adherent cells were counted after washing.

[3] = system: B cells and IgG-secreting plasma cells in the BM; settings: i.p. twice a day 5 μg for 4 days
Experimental: C57BL/6 mice were injected i.p. twice a day with 5 μg of AMD3100 for 4 days. B220+cells and IgG-secreting plasma cells were analyzed on day 4 by flow cytometry (H) and by ELISpot assay (I), respectively. n=5-6. The data are representative of at least two independent experiments. *p<0.05, **p<0.01, ***p<0.001.
To count Ig-secreting cells, MultiScreen filter plates with PVDF membrane (Merck) were activated for 1 min with 35% ethanol followed by washing and were coated with 7.2 μg/ml of goat anti-mouse Ig, F(ab′)2 fragment (Jackson ImmunoResearch) overnight at 4° C. After washing and blocking with RPMI1640/10% FCS, diluted fresh cells were added and incubated for 5 h at 37° C. Following incubation, alkaline phosphatase-conjugated anti-IgG, IgG1, IgM or IgA (Southern Biotech) was added for 1 h at 37° C. and spots were visualized with BCIP/NBT Plus substrate (Mabtech) and were counted by ELISpot reader (AID).

Molecule | number of anti-DNA IgG-secreting cells in bone marrow [1] | number of anti-DNA IgG-secreting cells in bone marrow ([1]; listed as SiiE129 peptide) | numbers of BM IgG-secreting plasma cells [2] | numbers of BM IgG-secreting plasma cells ([2]; listed as peptide coding SiiE amino acid 129-168) | B cell numbers in the BM ([3]; B220+ cells by flow cytometry on day 4) | numbers of IgG-secreting plasma cells in the BM ([3]; ELISpot on day 4)
KEADKAKEEAEKAKEAAEKALNEAFEVQNSSKQIEEMLQN (listed as Salmonella enterica) [SiiE 129-168] | reduces the number of Anti-DNA IgG-secreting cells in bone marrow | reduces numbers of anti-DNA IgG-secreting plasma cells in the BM | markedly reduced numbers of BM IgG-secreting plasma cells | reduces numbers of BM IgG-secreting plasma cells | – | –
c1cc(CN2CCCNCCNCCCNCC2)ccc1CN1CCCNCCNCCCNCC1 [AMD3100] | – | – | – | – | numerically reduces B cells | but not IgG-secreting plasma cells in the BM
